Experimental data: patent publication US12492173B2, “Herbicidal substituted N-tetrazolyl aryl carboxamides” (Bayer Aktiengesellschaft, priority 2019, dated 2025)

Tests used:
Format in all cases: in vivo
Veronica persica = test: Post-emergence herbicidal action, VERPE; parameters: key: % herbicidal action vs untreated; 100 = plants died, 0 = like control
Method in brief: (§1)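 After sowing into sandy loam, plants grew 2 to 3 weeks under greenhouse conditions until one leaf, then got a spray of compound as aqueous suspension or emulsion. Roughly three weeks on, activity was estimated visually against untreated pots.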

Stellaria media = test: Post-emergence herbicidal action, STEME; parameters: key: % herbicidal action vs untreated; 100 = plants died, 0 = like control
Method in brief: as §1

Setaria viridis [1] = test: Pre-emergence herbicidal action, SETVI; parameters: key to Herbicidal action against SETVI: % activity: 100 = plants have died, 0 = like control plants; conditions: for herbicidal activity SETVI / herbicidal action SETVI: dosage 320 g/ha; for herbicidal activity SETVI: scored visually after 3 weeks vs untreated controls (100% = plants have died); for Herbicidal action against SETVI: comparative experiment
Method in brief: (§2)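 Visual scoring after 3 weeks in the greenhouse, relative to untreated pots, gave percent activity, where 100% means dead plants and 0% equals controls. Treatment was a pre-emergence soil-surface spray of WP or EC formulations in water (600 to 800 l/ha, 0.2% wetting agent) over seeds covered in sandy loam.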

Viola tricolor = test: Pre-emergence herbicidal action, VIOTR; conditions: dosage 320 g/ha; for herbicidal activity VIOTR: scored visually after 3 weeks vs untreated controls (100% = plants have died)
Method in brief: as §2

Setaria viridis [2] = test: Post-emergence herbicidal action, SETVI; parameters: key: % herbicidal action vs untreated; 100 = plants died, 0 = like control
Method in brief: as §1

Amaranthus retroflexus = test: Post-emergence herbicidal action, AMARE; parameters: key: % herbicidal action vs untreated; 100 = plants died, 0 = like control
Method in brief: as §1

[3] = comparative experiment, post-emergence, 5 g of a.i./ha
[4] = comparative experiment, post-emergence, 20 g of a.i./ha

SMILES	herbicidal action VERPE (Veronica persica; post-emergence, dosage 80 g/ha) [%]	herbicidal action STEME (Stellaria media; post-emergence, dosage 80 g/ha) [%]	herbicidal activity SETVI (Setaria viridis [1]) [%]	herbicidal activity VIOTR (Viola tricolor) [%]	herbicidal action SETVI (Setaria viridis [2]; post-emergence, dosage 80 g/ha) [%]	herbicidal action AMARE (Amaranthus retroflexus; post-emergence, dosage 80 g/ha) [%]	herbicidal action VERPE (Veronica persica; Dosage 80 g/ha)	herbicidal action STEME (Stellaria media; Dosage 80 g/ha)	herbicidal action SETVI (Setaria viridis [2]; Dosage 80 g/ha)	herbicidal action AMARE (Amaranthus retroflexus; Dosage 80 g/ha)	other results
CCn1nnnc1NC(=O)c1ccc(C(F)(F)F)c(C[S+]([O-])CC)c1Cl (stereo not drawn) [Example 2-300]	100	100	100	100	100	100					
CSc1c(C(=O)Nc2nnnn2C)ccc(C(F)(F)F)c1C[S+](C)[O-] (stereo not drawn) [Example 1-162]	100	100	100	100	100	100					
CCSCc1c(C(F)(F)F)ccc(C(=O)Nc2nnnn2C)c1Cl [Example 1-299]	100	100	100	100	90	100					Herbicidal action against VERPE (Veronica persica; [3]): 100; Herbicidal action against STEME (Stellaria media; [3]): 100; Herbicidal action against SETVI (Setaria viridis [1]; 20 g of a.i./ha): 90
Cn1nnnc1NC(=O)c1ccc(C(F)(F)F)c(CSCC(F)(F)F)c1Cl [Example 1-311]			100	100			100	100	100	100	
Cn1nnnc1NC(=O)c1ccc(C(F)(F)F)c(C[S+]([O-])CC(F)(F)F)c1Cl (racemic) [Example 1-312]	90	100	100	100	100	100					
CCn1nnnc1NC(=O)c1ccc(C(F)F)c(C[S+](C)[O-])c1C (stereo not drawn) [Example 2-108]							100	100	90	100	herbicidal action SETVI (Setaria viridis [1]): 100%; herbicidal action VIOTR (Viola tricolor): 100%
CCSCc1c(C(F)F)ccc(C(=O)Nc2nnnn2CC)c1Cl [Example 2-323]	100	100	100	100	100	80					
CCn1nnnc1NC(=O)c1ccc(C(F)F)c(CSC)c1SC [Example 2-170]			100	100			90	100	90	100	
CCCn1nnnc1NC(=O)c1ccc(S(C)(=O)=O)c(CS(C)(=O)=O)c1C [Example 3-39]							100	90	90	100	herbicidal action SETVI (Setaria viridis [1]): 80%; herbicidal action VIOTR (Viola tricolor): 100%
CCn1nnnc1NC(=O)c1ccc(C(F)(F)F)c(CSCC(F)(F)F)c1Cl [Example 2-311]			100	100			100	100	100	100	
CSCc1c(C(F)F)ccc(C(=O)Nc2nnnn2C)c1Cl [Example 1-320]			100	100			100	100	100	100	Herbicidal action against VERPE (Veronica persica; [3]): 100; Herbicidal action against STEME (Stellaria media; [3]): 100; Herbicidal action against SETVI (Setaria viridis [2]; [3]): 100; Herbicidal action against AMARE (Amaranthus retroflexus; [3]): 100
Cn1nnnc1NC(=O)c1ccc(C(F)(F)F)c(C[S+]([O-])C2CC2)c1Cl (racemic) [Example 1-303]	100	100	100	100	100	100					
CCn1nnnc1NC(=O)c1ccc(S(C)(=O)=O)c(CS(C)(=O)=O)c1Cl [Example 2-280]											Herbicidal action against VERPE (Veronica persica; post-emergence, dosage 80 g/ha): 80; Herbicidal action against STEME (Stellaria media; post-emergence, dosage 80 g/ha): 100; herbicidal action SETVI (Setaria viridis [1]): 90%; herbicidal action VIOTR (Viola tricolor): 90%; Herbicidal action against SETVI (Setaria viridis [2]; post-emergence, dosage 80 g/ha): 80; Herbicidal action against AMARE (Amaranthus retroflexus; post-emergence, dosage 80 g/ha): 90
CCS(=O)(=O)Cc1c(C(F)(F)F)ccc(C(=O)Nc2nnnn2C)c1C [Example 1-88]							100	100	90	90	herbicidal action SETVI (Setaria viridis [1]): 100%; herbicidal action VIOTR (Viola tricolor): 100%
CCS(=O)(=O)Cc1c(C(F)(F)F)ccc(C(=O)Nc2nnnn2C)c1Br [Example 1-385]	100	100	100	100	100	90					Herbicidal action against VERPE (Veronica persica; [4]): 100; Herbicidal action against STEME (Stellaria media; [4]): 100; Herbicidal action against SETVI (Setaria viridis [1]; 80 g of a.i./ha): 90; Herbicidal action against SETVI (Setaria viridis [2]; [4]): 90; Herbicidal action against AMARE (Amaranthus retroflexus; [4]): 90
Cn1nnnc1NC(=O)c1ccc(C(F)(F)F)c(CS(C)(=O)=O)c1C(F)(F)C(F)(F)F [Example 1-552]			100	100			100	90	80	90	
CCCn1nnnc1NC(=O)c1ccc(C(F)(F)F)c(C[S+]([O-])CC)c1Br (stereo not drawn) [Example 3-384]			100	100			100	100	100	90	
